Reference: patent publication US11964990B2, “1,3,4,7-tetrahydro-2H-pyrrolo[3′,2′:5,6]pyrido[2,3-b][1,4]oxazepine bcl-2 inhibitors” (AbbVie Inc., priority 2022, dated 2024)

Columns and labels:
[1] = test system: Molt-4 cells; test: Cell viability counter screen assay (CellTiter-Glo) in Molt-4 cells; format: cell-based; conditions: 24 hours, 10% Human Serum, 50% decrease in cell viability
Outline: (§1)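 RS4;11 or Molt-4 cells (3000 per well) in RPMI 1640 with 10% human serum treated with compound for 24 h, 5% CO2. Viability measured by CellTiter-Glo as percent of control; EC50 from sigmoidal dose-response curves.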

[2] = test system: RS4;11 cells; test: Cell viability assay (CellTiter-Glo) in RS4;11 cell line; format: cell-based; conditions: 24 hours, 10% Human Serum, 50% decrease in cell viability
Outline: as §1

| SMILES | EC50 [1] | EC50 [2] |
| --- | --- | --- |
| CC1(C)CC(c2ccc(Cl)cc2)=C2CN3CCN(c4ccc(C(=O)NS(=O)(=O)c5ccc(NCC6(F)CCN(C7COC7)CC6)c([N+](=O)[O-])c5)c(N5CCCOc6nc7[nH]ccc7cc65)c4)C[C@H]3COCCCO[C@@H]2C1 [Example 39, 4-((4aS,10aR)-14-(4-chlorophenyl)-12,12-dimethyl-1,2,4a,5,8,9,10a,11,13,15-decahydro-7H,12H-benzo[f]pyrazino[2,1-c][1,8]dioxa[4]azacycloundecin-3(4H)-yl)-2-(3,4-dihydro-2H-pyrrolo[3′,2′:5,6]pyrido[2,3-b][1,4]oxazepin-1(7H)-yl)-N-((4-(((4-fluoro-1-(oxetan-3-yl)piperidin-4-yl)methyl)amino)-3-nitrophenyl)sulfonyl)benzamide] | 453 nM | 1.66 nM |
| CO[C@H]1CC[C@H](COc2ccc(S(=O)(=O)NC(=O)c3ccc(N4CCN5CC6=C(c7ccc(Cl)cc7)CC(C)(C)C[C@H]6OCCCOC[C@@H]5C4)cc3N3CCCOc4nc5[nH]ccc5cc43)cc2Cl)OC1 [Example 40, N-((3-chloro-4-(((2R,5S)-5-methoxytetrahydro-2H-pyran-2-yl)methoxy)phenyl)sulfonyl)-4-((4aS,10aR)-14-(4-chlorophenyl)-12,12-dimethyl-1,2,4a,5,8,9,10a,11,13,15-decahydro-7H,12H-benzo[f]pyrazino[2,1-c][1,8]dioxa[4]azacycloundecin-3(4H)-yl)-2-(3,4-dihydro-2H-pyrrolo[3′,2′:5,6]pyrido[2,3-b][1,4]oxazepin-1(7H)-yl)benzamide] | > 10000 nM | 24.5 nM |
| CO[C@H]1C[C@H](CNc2ccc(S(=O)(=O)NC(=O)c3ccc(N4CCN5CC6=C(c7ccc(Cl)cc7)CC(C)(C)C[C@H]6OCCCOC[C@@H]5C4)cc3N3CCCOc4nc5[nH]ccc5cc43)cc2[N+](=O)[O-])C1 [Example 41, 4-((4aS,10aR)-14-(4-chlorophenyl)-12,12-dimethyl-1,2,4a,5,8,9,10a,11,13,15-decahydro-7H,12H-benzo[f]pyrazino[2,1-c][1,8]dioxa[4]azacycloundecin-3(4H)-yl)-2-(3,4-dihydro-2H-pyrrolo[3′,2′:5,6]pyrido[2,3-h][1,4]oxazepin-1(7H)-yl)-N-((4-((((1r,3r)-3-methoxycyclobutyl)methyl)amino)-3-nitrophenyl)sulfonyl)benzamide] | > 10000 nM | 3.93 nM |
| CC1(C)CC(c2ccc(Cl)cc2)=C2CN3CCN(c4ccc(C(=O)NS(=O)(=O)c5ccc(OCC6CCOCC6)c([N+](=O)[O-])c5)c(N5CCCOc6nc7[nH]ccc7cc65)c4)C[C@H]3COCCCO[C@@H]2C1 [Example 46, 4-((4aS,10aR)-14-(4-chlorophenyl)-12,12-dimethyl-1,2,4a,5,8,9,10a,11,13,15-decahydro-7H,12H-benzo[f]pyrazino[2,1-c][1,8]dioxa[4]azacycloundecin-3(4H)-yl)-2-(3,4-dihydro-2H-pyrrolo[3′,2′:5,6]pyrido[2,3-b][1,4]oxazepin-1(7H)-yl)-N-((3-nitro-4-((tetrahydro-2H-pyran-4-yl)methoxy)phenyl)sulfonyl)benzamide] | > 10000 nM | 9.36 nM |
| CC1(C)CC(c2ccc(Cl)cc2)=C2CN3CCN(c4ccc(C(=O)NS(=O)(=O)c5ccc(OC[C@H]6CC[C@@](C)(O)CC6)c([N+](=O)[O-])c5)c(N5CCCOc6nc7[nH]ccc7cc65)c4)C[C@H]3COCCCO[C@@H]2C1 [Example 49, 4-((4aS,10aR)-14-(4-chlorophenyl)-12,12-dimethyl-1,2,4a,5,8,9,10a,11,13,15-decahydro-7H,12H-benzo[f]pyrazino[2,1-c][1,8]dioxa[4]azacycloundecin-3(4H)-yl)-2-(3,4-dihydro-2H-pyrrolo[3′,2′:5,6]pyrido[2,3-b][1,4]oxazepin-1(7H)-yl)-N-((4-(((1s,4s)-4-hydroxy-4-methylcyclohexyl)methoxy)-3-nitrophenyl)sulfonyl)benzamide] | 36 nM | 25 nM |
